According to patent US20230348564A1, “ANTI-CANCER PROTEINS” (UNICHEM LABORATORIES LTD, priority 2020, published 2023):
Read-outs that look alike come from different tables or passages of the source.

Key:
[1] = system: HT-29 (Colorectal cancer); experiment: Xenograft study; type: in vivo, mice; conditions: HT-29 xenograft, IP
Text: (§1) The Xenograft models used were HT-29, KB, PA-1, MCF-7, PANC-1, T24 and MDA-MB-231. The basic study design for the Xenograft study was as follows: • 1. Cell maintenance and cell suspension preparation • 2. Aseptic injection of tumor cell suspension in the donor animal • 3. Randomization of animals in respective groups • 4. IP dosing of test items in predetermined doses • 5. IP administration of standard • 6. After completion of dosing period. • 7. The Tumor volume recording weekly twice while body weight and clinical signs daily.

[2] = system: EA.hy926 (Human endothelial cells); experiment: endothelial cell proliferation by MTT assay; type: cell-based; conditions: 72 h
Description: The cell line used for the study was EA.hy926 (Human endothelial cells) which was procured from National Centre for Cell Science, Pune (India). The cell line was maintained in DMEM+10% FBS (heat inactivated) at 37° C. with 5% CO2, and 95% humidity. […] Untreated cells with complete medium (10% FBS) served as complete medium control, cells with sera free medium served as SFM control and the cells treated with Paclitaxel served as positive control.
The percentage cytotoxicity corresponding to each treatment was calculated.

[3] = system: EA.hy926 (Human endothelial cells); experiment: Cell migration by scratch assay in endothelial cells; type: cell-based; conditions: Homo sapiens, read-out: Inhibition of migration with respect to untreated; for inhibition at 0.0001 µM: 0.1 nM; for inhibition at 0.001 µM: 1 nM; for inhibition at 0.0025 µM: 2.5 nM; for inhibition at 0.005 µM: 5 nM; for inhibition at 0.01 µM: 10 nM
Description: EA.hy296 cells were counted using hemocytometer and plated in 6-well plates at the density of 0.5×10^6 cells/well. The cells were incubated overnight under growth conditions as described above so as to allow cell recovery and exponential growth. Following overnight incubation, a small linear scratch (representative wound) was created in the confluent monolayer (middle of the well) by gently scraping with sterile 200 μl micropipette tip. Photomicrographs of the scratch were taken at 0 h (Initial time point). Cells were rinsed with serum free DMEM and grouped for treatment in two different serum conditions:
• Baseline control: Cells+DMEM • Positive/Validation control: Baseline control+Positive Control. Test: Baseline control+Test Item
• Baseline control: Cells+DMEM+1% FBS • Positive/Validation control: Baseline control+Positive Control. • Test: Baseline control+Test item
Photomicrographs of the scratch were taken at 24 h-72 h time points. The photomicrographs obtained in the above step were analyzed for quantitative assessment of area of wound closure using ImageJ tool software. Percentage migration with respect to untreated cells at different time points was calculated.

Contactin-1 = experiment: biomarker levels in IOMM-Lee by multiplex analysis; type: cell-based, Human
Text: (§2) Effect of SEQ ID No 2 on the expression of following 7 biomarkers were estimated in Human Meningioma cell line (IOMM-Lee) using multiplex analysis: TNF-alpha, VEGF, VEGFR2, HGF, HGFR/c-MET, PDGF-BB, and Contactin-1. Levels of another marker, Notch-1 were also estimated by ELISA in the same cell line. These 8 biomarkers play very crucial role in the pathogenesis and progression of Brain Tumor. […] Supernatants were collected and the levels of these 8 markers were investigated.

TNF-α = experiment: biomarker levels in IOMM-Lee by multiplex analysis; type: cell-based, Human
Text: as §2

VEGFR2 = experiment: biomarker levels in IOMM-Lee by multiplex analysis; type: cell-based, Human
Text: as §2

HGFR/c-MET = experiment: biomarker levels in IOMM-Lee by multiplex analysis; type: cell-based, Human
Text: as §2

HGF = experiment: biomarker levels in IOMM-Lee by multiplex analysis; type: cell-based, Human
Text: as §2

PDGF-BB = experiment: biomarker levels in IOMM-Lee by multiplex analysis; type: cell-based, Human
Text: as §2

VEGF = experiment: biomarker levels in IOMM-Lee by multiplex analysis; type: cell-based, Human; conditions: 0.1 μM
Text: as §2

Notch-1 = experiment: biomarker levels in IOMM-Lee by ELISA; type: cell-based, Human; conditions: 0.1 μM
Text: as §2

Astrocytoma (U87MG) = experiment: cytotoxicity in Brain Tumor Cell lines by MTT assay; conditions: 0.05 μM-50 μM, 72 h
Glioma (C6) = experiment: as above; type: cell-based, Rat; conditions: 0.05 μM-50 μM, 72 h
Description: (§3) The SEQ ID NO. […] Untreated cells were used as control. […] Cells were incubated for 3 h at 37° C.

Meningioma (IOMM-Lee) = experiment: as above; conditions: 0.05 μM-50 μM, 72 h
Glioblastoma (LN-18) = experiment: as above; type: cell-based, Human; conditions: 0.05 μM-50 μM, 72 h
Description: as §3

Neuroblastoma (SH-SY5Y) = experiment: as above; type: cell-based, Human; conditions: 0.05 μM-50 μM, 72 h
Description: as §3

[4] = system: PANC-1 (Pancreas/duct epithelioid carcinoma); experiment: Xenograft study; type: in vivo, mice; conditions: PANC-1 xenograft, IP
Text: as §1

[5] = system: neovascularization of Matrigel plug containing FGF-2 (bFGF); experiment: Matrigel plug assay (in-vivo anti-angiogenesis); design: species or system C57BL/6 mice; conditions: G3, 55 mg/Kg, qdx15
Description: Healthy C57BL/6 mice were selected and grouped on the basis of body weight into […] (G1-G4, n=7). Each mouse of group G2-G4 was subcutaneously injected at right flank region with 500 μl of matrigel containing 500 ng of FGF-2 (bFGF). Whereas mice of G1 group were subcutaneously injected at right flank region with 500 μl of matrigel only. In this assay, angiogenesis-inducing compounds such as bFGF was introduced into cold liquid Matrigel which, after subcutaneous injection, solidified and permits penetration by host cells and the formation of new blood vessels (neovascularization).
Required amount of test items were taken and added to an appropriate volume of Tris Buffered Saline (TBS) to achieve the required concentrations. The dose volume given to animal was 10 mL/Kg.
Daily cage-side observations were carried out to detect any clinical signs or mortality and recorded throughout the experiment period.

O=c1[nH]cc(F)c(=O)[nH]1 [5-Fluorourasil, reference compound]
Maximum Tumor Growth Inhibition (%) [1]: 62.94%
Tumor Volume (mm^3) (Mean ± SEM) [1]: 1362 ± 155 mm^3

CC(=O)O[C@H]1C(=O)[C@@]2(C)[C@H]([C@H](OC(=O)c3ccccc3)[C@]3(O)C[C@H](OC(=O)[C@H](O)[C@@H](NC(=O)c4ccccc4)c4ccccc4)C(C)=C1C3(C)C)[C@]1(OC(C)=O)CO[C@@H]1C[C@@H]2O [Paclitaxel, reference compound]
Mean (MTT absorbance) ([2]; 1 nM): 0.93
Mean (MTT absorbance) ([2]; 10 nM): 0.89
Mean (MTT absorbance) ([2]; 100 nM): 0.57
Mean (MTT absorbance) ([2]; 1000 nM): 0.45
inhibition at 0.001 µM ([2]; Homo sapiens, EA.hy 926, 1 nM, read-out: % inhibition of FBS stimulated cell growth): 42%
inhibition at 0.01 µM ([2]; Homo sapiens, EA.hy 926, 10 nM, read-out: % inhibition of FBS stimulated cell growth): 44.7%
inhibition at 0.1 µM ([2]; Homo sapiens, EA.hy 926, 100 nM, read-out: % inhibition of FBS stimulated cell growth): 64.5%
inhibition at 1 µM ([2]; Homo sapiens, EA.hy 926, 1000 nM, read-out: % inhibition of FBS stimulated cell growth): 71.7%
inhibition at 0.0001 µM ([3]; EA.hy 926, 24 h, 24 h, 1% FBS): -1.1%
inhibition at 0.0001 µM ([3]; EA.hy 926, 24 h, 24 h, SFM): 26.5%
inhibition at 0.001 µM ([3]; EA.hy 926, 24 h, 24 h, 1% FBS): 7.8%
inhibition at 0.001 µM ([3]; EA.hy 926, 24 h, 24 h, SFM): 28.5%
inhibition at 0.0025 µM ([3]; EA.hy 926, 24 h, 24 h, 1% FBS): 25.9%
inhibition at 0.0025 µM ([3]; EA.hy 926, 24 h, 24 h, SFM): 51.4%
inhibition at 0.005 µM ([3]; EA.hy 926, 24 h, 24 h, 1% FBS): 25%
inhibition at 0.005 µM ([3]; EA.hy 926, 24 h, 24 h, SFM): 43.7%
inhibition at 0.01 µM ([3]; EA.hy 926, 24 h, 24 h, 1% FBS): 44.4%
inhibition at 0.01 µM ([3]; EA.hy 926, 24 h, 24 h, SFM): 58.9%
inhibition at 0.0001 µM ([3]; EA.hy 926, 48 h, 48 h, 1% FBS): -0.2%
inhibition at 0.0001 µM ([3]; EA.hy 926, 48 h, 48 h, SFM): 21.1%
inhibition at 0.001 µM ([3]; EA.hy 926, 48 h, 48 h, 1% FBS): 2.1%
inhibition at 0.001 µM ([3]; EA.hy 926, 48 h, 48 h, SFM): 36.8%
inhibition at 0.0025 µM ([3]; EA.hy 926, 48 h, 48 h, 1% FBS): 18.3%
inhibition at 0.0025 µM ([3]; EA.hy 926, 48 h, 48 h, SFM): 51.6%
inhibition at 0.005 µM ([3]; EA.hy 926, 48 h, 48 h, 1% FBS): 10.6%
inhibition at 0.005 µM ([3]; EA.hy 926, 48 h, 48 h, SFM): 45.2%
inhibition at 0.01 µM ([3]; EA.hy 926, 48 h, 48 h, 1% FBS): 37.2%
inhibition at 0.01 µM ([3]; EA.hy 926, 48 h, 48 h, SFM): 60.2%
inhibition at 0.0001 µM ([3]; EA.hy 926, 72 h, 72 h, SFM): 7.8%
inhibition at 0.001 µM ([3]; EA.hy 926, 72 h, 72 h, SFM): 32.7%
inhibition at 0.0025 µM ([3]; EA.hy 926, 72 h, 72 h, SFM): 42.8%
inhibition at 0.005 µM ([3]; EA.hy 926, 72 h, 72 h, SFM): 47.3%
inhibition at 0.01 µM ([3]; EA.hy 926, 72 h, 72 h, SFM): 56.3%

CO[C@H]1C[C@@H]2CC[C@@H](C)[C@@](O)(O2)C(=O)C(=O)N2CCCC[C@H]2C(=O)O[C@H]([C@H](C)C[C@@H]2CC[C@@H](OCCO)[C@H](OC)C2)CC(=O)[C@H](C)/C=C(\C)[C@@H](O)[C@@H](OC)C(=O)[C@H](C)C[C@H](C)/C=C/C=C/C=C/1C [Everolimus]
Percentage inhibition on levels of Contactin-1 (Contactin-1; 0.1 μM): 14.9%
Percentage inhibition on levels of Contactin-1 (Contactin-1; 5 μM): 31.3%
Percentage inhibition on levels of TNF-α (TNF-α; 0.1 μM): 42.3%
Percentage inhibition on levels of TNF-α (TNF-α; 5 μM): 100%
Percentage inhibition on levels of VEGFR2 (VEGFR2; 0.1 μM): 27.6%
Percentage inhibition on levels of VEGFR2 (VEGFR2; 5 μM): 100%
Percentage inhibition on levels of HGFR/c-MET (HGFR/c-MET; 0.1 μM): 21.2%
Percentage inhibition on levels of HGFR/c-MET (HGFR/c-MET; 5 μM): 41%
Percentage inhibition on levels of HGF (HGF; 0.1 μM): 59.2%
Percentage inhibition on levels of HGF (HGF; 5 μM): 80.8%
Percentage inhibition on levels of PDGF-BB (PDGF-BB; 0.1 μM): 1.5%
Percentage inhibition on levels of PDGF-BB (PDGF-BB; 5 μM): 67.9%
Percentage inhibition on levels of VEGF (VEGF): 45.8%
Percentage inhibition on levels of Notch-1 (Notch-1): 75.9%
% of cytotoxicity (Astrocytoma (U87MG)): 43.6%-88.0%
% of cytotoxicity (Glioma (C6)): 50.3%-97.2%
% of cytotoxicity (Meningioma (IOMM-Lee)): 44.7%-97.4%
% of cytotoxicity (Glioblastoma (LN-18)): 3.5%-90.7%
% of cytotoxicity (Neuroblastoma (SH-SY5Y)): 29.7%-70.1%

Nc1ccn([C@@H]2O[C@H](CO)[C@@H](O)C2(F)F)c(=O)n1 [Gemcitabine, reference compound]
Maximum Tumor Growth Inhibition (%) [4]: 61.49%
Tumor Volume (mm^3) (Mean ± SEM) [4]: 503.93 ± 151.27 mm^3

CCN(CC)CCNC(=O)c1c(C)[nH]c(/C=C2\C(=O)Nc3ccc(F)cc32)c1C [Sunitinib, reference compound]
Hemoglobin Content in the Matrigel Plug Section, Mean ([5]; p.o.): 21.92
reduction in hemoglobin content in homogenate of Matrigel plug compared to positive control ([5]; p.o.): 59.2%
Histological Observation, Fat cell Infiltration, Mean [5]: 0.71
Histological Observation, Fibroblast Infiltration, Mean [5]: 2.43
Histological Observation, MN cell Infiltration, Mean [5]: 1.57
Histological Observation, Neovascularization, Mean [5]: 1.14
